The subject of one experiment is p14^ARF. Briefly: mRNA expression by conventional RT-PCR. Format: cell-based, Human. As for the experimental part:
(§1) Conventional RT-PCR was also performed to assess the mRNA expression of p14^ARF 27, p16^INK4a 28, hMLH1^29, DNMT-1^30 and DNMT-3b^31. cDNA was generated with random hexamers using 2 μg of RNA. The PCR was performed as previously reported^32. β-actin was used as an endogenous control. The statistical significance of differences between the experimental points or between groups was analyzed using Student's t-test; and differences were considered significant when P<0.05.

A further experiment concerns p16^INK4a. Briefly: mRNA expression by conventional RT-PCR. The format is cell-based, Human. The procedure:
as §1

Consider 1 compound from patent publication US20090076131A1, “Anti-Cancer and Anti-Inflammatory Effects of Annurca Apple Extracts and Compositions Purified Therefrom” (BAYLOR RESEARCH INSTITUTE, priority 2007, published 2009).

SMILES strings stand for the structures.

`Nc1ncn([C@H]2C[C@H](O)[C@@H](CO)O2)c(=O)n1` [5-aza-2dC, 5-aza-2′deoxycytidine]: the results for the “p14^ARF RNA transcripts” value in the experiment on p14^ARF (RKO) and with p14^ARF (SW48 cells) were “re-expression” and “appearance of RNA transcripts”, respectively. For the same compound, the “p16^INK4a RNA transcripts” value in the experiment with p16^INK4a (RKO) is recorded as “re-expression”; in the experiment with p16^INK4a (SW48 cells) it was “appearance of RNA transcripts”.
